Patent US20230083973A1, “SUBSTITUTED CYCLOPROPYL-2,2'-BIP[…], ANALOGUES THEREOF, AND METHODS USING SAME” (priority 2019, published 2023)
Where two headings read alike, the source gives them in different places.

System: HBsAg
Experiment: HBsAg assay: inhibition of HBsAg in HepG2.2.15 cells (chemiluminescence immunoassay of supernatant)
Format: cell-based, hepatitis B virus
Conditions: HBsAg in supernatant at day 6 after exposure to compound, 0.5% DMSO
Outline: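 Secreted HBsAg quantified by CLIA in day-6 supernatants of HepG2.2.15 cultures given compound dilutions at 0.5% final DMSO, with one compound/medium replenishment after 2–3 days. Dose-response fits gave EC50 (50% inhibition); viability checked separately by CellTiter-Glo.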

[1] = read-out: sAg EC50, HepG2.2.15 cells

Fc1cc(C2CC2c2cnc(-c3ncccn3)nc2)cc(N2CC(c3ccccc3)C2)c1F (single isomer, unassigned) [Example 255, trans-5-(2-(3,4-Difluoro-5-(3-phenylazetidin-1-yl)phenyl)cyclopropyl)-2,2′-bipyrimidine]
EC50 [1]: 780 nM

Fc1cc(C2CC2c2cnc(-c3ncccn3)nc2)cc(N2CC(c3ccccc3)C2)c1F (single isomer, unassigned) [Example 256, trans-5-(2-(3,4-Difluoro-5-(3-phenylazetidin-1-yl)phenyl)cyclopropyl)-2,2′-bipyrimidine]
EC50 [1]: 28 nM

Fc1cn(-c2cc(C3CC3c3cnc(-c4ncccn4)nc3)cc(F)c2F)cc1F (single isomer, unassigned) [Example 257, trans-5-(2-(3-(3,4-Difluoro-1H-pyrrol-1-yl)-4,5-difluorophenyl)cyclopropyl)-2,2′-bipyrimidine]
EC50 [1]: 140 nM

Fc1cn(-c2cc(C3CC3c3cnc(-c4ncccn4)nc3)cc(F)c2F)cc1F (single isomer, unassigned) [Example 258, trans-5-(2-(3-(3,4-Difluoro-1H-pyrrol-1-yl)-4,5-difluorophenyl)cyclopropyl)-2,2′-bipyrimidine]
EC50 [1]: 14 nM

Oc1cnn(-c2cc(C3CC3c3cnc(-c4ncccn4)nc3)cc(F)c2F)c1 (single isomer, unassigned) [Example 259, trans-1-(5-(2-([2,2′-Bipyrimidin]-5-yl)cyclopropyl)-2,3-difluorophenyl)-1H-pyrazol-4-ol]
EC50 [1]: 2000 nM

Oc1cnn(-c2cc(C3CC3c3cnc(-c4ncccn4)nc3)cc(F)c2F)c1 (single isomer, unassigned) [Example 260, trans-1-(5-(2-([2,2′-Bipyrimidin]-5-yl)cyclopropyl)-2,3-difluorophenyl)-1H-pyrazol-4-ol]
EC50 [1]: 670 nM

Cc1cn(-c2cc(C3CC3c3cnc(-c4ncccn4)nc3)cc(F)c2F)cn1 (single isomer, unassigned) [Example 261, trans-5-(2-(3,4-Difluoro-5-(4-methyl-1H-imidazol-1-yl)phenyl)cyclopropyl)-2,2′-bipyrimidine]
EC50 [1]: 670 nM

Cc1cn(-c2cc(C3CC3c3cnc(-c4ncccn4)nc3)cc(F)c2F)cn1 (single isomer, unassigned) [Example 262, trans-5-(2-(3,4-Difluoro-5-(4-methyl-1H-imidazol-1-yl)phenyl)cyclopropyl)-2,2′-bipyrimidine]
EC50 [1]: 47 nM

COCCCn1ncc2c(C3CC3c3cnc(-c4ncccn4)nc3)cc(F)c(F)c21 (single isomer, unassigned) [Example 265, trans-4-(2-([2,2′-Bipyrimidin]-5-yl)cyclopropyl)-6,7-difluoro-1-(3-methoxypropyl)-1H-indazole]
EC50 [1]: 61 nM

COCCCn1ncc2c(C3CC3c3cnc(-c4ncccn4)nc3)cc(F)c(F)c21 (single isomer, unassigned) [Example 266, trans-4-(2-([2,2′-Bipyrimidin]-5-yl)cyclopropyl)-6,7-difluoro-1-(3-methoxypropyl)-1H-indazole]
EC50 [1]: 2 nM

COCCCn1cc2c(F)cc(C3CC3c3cnc(-c4ncccn4)nc3)cc2n1 (single isomer, unassigned) [Example 268, trans-6-(2-([2,2′-Bipyrimidin]-5-yl)cyclopropyl)-4-fluoro-2-(3-methoxypropyl)-2H-indazole]
EC50 [1]: 10 nM

COCCCn1cc2c(F)cc(C3CC3c3cnc(-c4ncccn4)nc3)cc2n1 (single isomer, unassigned) [Example 269, trans-6-(2-([2,2′-Bipyrimidin]-5-yl)cyclopropyl)-4-fluoro-2-(3-methoxypropyl)-2H-indazole]
EC50 [1]: 46 nM

CCOC(=O)C1C(c2cnc(-c3ncccn3)nc2)C1c1cc(F)c(F)c(OC)c1 (stereo not drawn) [Example 263, trans-Ethyl 2-([2,2′-bipyrimidin]-5-yl)-3-(3,4-difluoro-5-methoxyphenyl)cyclopropane-1-carboxylate]
EC50 (Hepatitis B virus, HepG2.2.15, 144 h, read-out: sAg EC50, HepG2.2.15 cells): 12000 nM
